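Interpolation was linear, between the two tested concentrations surrounding the appropriate level; five concentrations were tested over 48 hours in 96-well plates. Definition used: TGI = concentration required for complete inhibition of growth.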
How the values were obtained:
Experiment in all cases: NCI tumour cell line growth inhibition, 48 h
786-0 renal = tested on: 786-0 renal
A549 NSCLC = tested on: A549 NSCLC
ACHN renal = tested on: ACHN renal
CAKI-1 renal = tested on: CAKI-1 renal
COLO 205 colon = tested on: COLO 205 colon
DLD-1 colon = tested on: DLD-1 colon
DMS 114 small cell lung = tested on: DMS 114 small cell lung
DMS 273 small cell lung = tested on: DMS 273 small cell lung
EKVX NSCLC = tested on: EKVX NSCLC
HCC-2998 colon = tested on: HCC-2998 colon
HCT-15 colon = tested on: HCT-15 colon
HL-60(TB) leukemia = tested on: HL-60(TB) leukemia
HOP-62 NSCLC = tested on: HOP-62 NSCLC
HOP-92 NSCLC = tested on: HOP-92 NSCLC
IGROV1 ovarian = tested on: IGROV1 ovarian
K-562 leukemia = tested on: K-562 leukemia
KM12 colon = tested on: KM12 colon
KM20L2 colon = tested on: KM20L2 colon
LOX IMVI melanoma = tested on: LOX IMVI melanoma
LXFL 529 NSCLC = tested on: LXFL 529 NSCLC
M14 melanoma = tested on: M14 melanoma
M19-MEL melanoma = tested on: M19-MEL melanoma
MALME-3M melanoma = tested on: MALME-3M melanoma
MOLT-4 leukemia = tested on: MOLT-4 leukemia
NCI-H23 lung = tested on: NCI-H23 lung
NCI-H460 lung = tested on: NCI-H460 lung
NCI-H522 lung = tested on: NCI-H522 lung
OVCAR-3 ovarian = tested on: OVCAR-3 ovarian
OVCAR-4 ovarian = tested on: OVCAR-4 ovarian
OVCAR-5 ovarian = tested on: OVCAR-5 ovarian
OVCAR-8 ovarian = tested on: OVCAR-8 ovarian
RPMI-8226 leukemia = tested on: RPMI-8226 leukemia
RXF 393 renal = tested on: RXF 393 renal
RXF-631 renal = tested on: RXF-631 renal
SF-268 CNS = tested on: SF-268 CNS
SF-295 CNS = tested on: SF-295 CNS
SK-MEL-2 melanoma = tested on: SK-MEL-2 melanoma
SK-MEL-28 melanoma = tested on: SK-MEL-28 melanoma
SK-MEL-5 melanoma = tested on: SK-MEL-5 melanoma
SK-OV-3 ovarian = tested on: SK-OV-3 ovarian
SN12C renal = tested on: SN12C renal
SNB-19 CNS = tested on: SNB-19 CNS
SNB-75 CNS = tested on: SNB-75 CNS
SNB-78 CNS = tested on: SNB-78 CNS
SW-620 colon = tested on: SW-620 colon
TK-10 renal = tested on: TK-10 renal
UACC-257 melanoma = tested on: UACC-257 melanoma
UACC-62 melanoma = tested on: UACC-62 melanoma
UO-31 renal = tested on: UO-31 renal
XF 498 CNS = tested on: XF 498 CNS
A498 renal = tested on: A498 renal
CCRF-CEM leukemia = tested on: CCRF-CEM leukemia
HCT-116 colon = tested on: HCT-116 colon
HOP-18 NSCLC = tested on: HOP-18 NSCLC
HT29 colon = tested on: HT29 colon
MCF7 breast = tested on: MCF7 breast
NCI-H226 lung = tested on: NCI-H226 lung
NCI/ADR-RES ovarian = tested on: NCI/ADR-RES ovarian
P388 leukemia = tested on: P388 leukemia
SF-539 CNS = tested on: SF-539 CNS
SN12K1 renal = tested on: SN12K1 renal
U251 CNS = tested on: U251 CNS
SR leukemia = tested on: SR leukemia

For `CCCCCCCC1(c2ccc(N)cc2)CCC(=O)NC1=O` (stereo not drawn), the TGI (786-0 renal) was over 100 µM, the TGI (A549 NSCLC) was over 100 µM and the TGI (ACHN renal) was 67.3 µM. For the same molecule, the TGI (CAKI-1 renal) was over 100 µM, the TGI (COLO 205 colon) was 52.5 µM and the TGI (DLD-1 colon) was over 100 µM. The TGI (DMS 114 small cell lung) was 85.3 µM, the TGI (DMS 273 small cell lung) was 73.8 µM and the TGI (EKVX NSCLC) was over 100 µM. The TGI (HCC-2998 colon) was over 100 µM, the TGI (HCT-15 colon) was over 100 µM and the TGI (HL-60(TB) leukemia) was 36.6 µM. For the same molecule, the TGI (HOP-62 NSCLC) was over 100 µM, the TGI (HOP-92 NSCLC) was 51.9 µM and the TGI (IGROV1 ovarian) was over 100 µM. It also gave a TGI (K-562 leukemia) of over 100 µM, a TGI (KM12 colon) of over 100 µM and a TGI (KM20L2 colon) of over 100 µM. The TGI (LOX IMVI melanoma) was over 100 µM, the TGI (LXFL 529 NSCLC) was over 100 µM and the TGI (M14 melanoma) was over 100 µM. For the same molecule, the TGI (M19-MEL melanoma) was over 100 µM, the TGI (MALME-3M melanoma) was over 100 µM and the TGI (MOLT-4 leukemia) was 65.7 µM. For the same molecule, the TGI (NCI-H23 lung) was over 100 µM, the TGI (NCI-H460 lung) was over 100 µM and the TGI (NCI-H522 lung) was 78.6 µM. For the same molecule, the TGI (OVCAR-3 ovarian) was 81.1 µM, the TGI (OVCAR-4 ovarian) was over 100 µM and the TGI (OVCAR-5 ovarian) was over 100 µM. For the same molecule, the TGI (OVCAR-8 ovarian) was over 100 µM, the TGI (RPMI-8226 leukemia) was 40.8 µM and the TGI (RXF 393 renal) was over 100 µM. For the same molecule, the TGI (RXF-631 renal) was over 100 µM, the TGI (SF-268 CNS) was over 100 µM and the TGI (SF-295 CNS) was 88.1 µM. The TGI (SK-MEL-2 melanoma) was over 100 µM, the TGI (SK-MEL-28 melanoma) was over 100 µM and the TGI (SK-MEL-5 melanoma) was 49.6 µM. For the same molecule, the TGI (SK-OV-3 ovarian) was over 100 µM, the TGI (SN12C renal) was over 100 µM and the TGI (SNB-19 CNS) was over 100 µM. It also gave a TGI (SNB-75 CNS) of 96.2 µM, a TGI (SNB-78 CNS) of over 100 µM and a TGI (SW-620 colon) of over 100 µM. For the same molecule, the TGI (TK-10 renal) was over 100 µM, the TGI (UACC-257 melanoma) was over 100 µM and the TGI (UACC-62 melanoma) was over 100 µM. It also gave a TGI (UO-31 renal) of 74.8 µM and a TGI (XF 498 CNS) of 75.2 µM.
With `Nc1c(S(=O)(=O)O)cc(S(=O)(=O)O)c2ccc(N=Nc3ccc(/C=C/c4ccc(N=Nc5ccc6c(S(=O)(=O)O)cc(S(=O)(=O)O)c(N)c6c5O)cc4S(=O)(=O)O)c(S(=O)(=O)O)c3)c(O)c12` the TGI (A498 renal) was over 100 µM, the TGI (A549 NSCLC) was over 100 µM and the TGI (CCRF-CEM leukemia) was over 100 µM. The TGI (COLO 205 colon) was over 100 µM, the TGI (DLD-1 colon) was over 100 µM and the TGI (DMS 114 small cell lung) was over 100 µM. For the same molecule, the TGI (DMS 273 small cell lung) was over 100 µM, the TGI (EKVX NSCLC) was over 100 µM and the TGI (HCC-2998 colon) was over 100 µM. For the same molecule, the TGI (HCT-116 colon) was over 100 µM, the TGI (HCT-15 colon) was over 100 µM and the TGI (HL-60(TB) leukemia) was over 100 µM. The TGI (HOP-18 NSCLC) was over 100 µM, the TGI (HOP-62 NSCLC) was over 100 µM and the TGI (HOP-92 NSCLC) was over 100 µM. It also gave a TGI (HT29 colon) of over 100 µM, a TGI (IGROV1 ovarian) of over 100 µM and a TGI (K-562 leukemia) of over 100 µM. It also gave a TGI (KM12 colon) of over 100 µM, a TGI (KM20L2 colon) of over 100 µM and a TGI (LOX IMVI melanoma) of over 100 µM. The TGI (M19-MEL melanoma) was over 100 µM, the TGI (MALME-3M melanoma) was over 100 µM and the TGI (MCF7 breast) was over 100 µM. The TGI (MOLT-4 leukemia) was over 100 µM, the TGI (NCI-H226 lung) was over 100 µM and the TGI (NCI-H23 lung) was over 100 µM. For the same molecule, the TGI (NCI-H460 lung) was over 100 µM, the TGI (NCI-H522 lung) was over 100 µM and the TGI (NCI/ADR-RES ovarian) was over 100 µM. For the same molecule, the TGI (OVCAR-3 ovarian) was over 100 µM, the TGI (OVCAR-4 ovarian) was over 100 µM and the TGI (OVCAR-5 ovarian) was over 100 µM. For the same molecule, the TGI (OVCAR-8 ovarian) was over 100 µM, the TGI (P388 leukemia) was over 100 µM and the TGI (RPMI-8226 leukemia) was over 100 µM. It also gave a TGI (RXF 393 renal) of over 100 µM, a TGI (SF-268 CNS) of over 100 µM and a TGI (SF-295 CNS) of over 100 µM. The TGI (SF-539 CNS) was over 100 µM, the TGI (SK-MEL-2 melanoma) was over 100 µM and the TGI (SK-MEL-28 melanoma) was over 100 µM. The TGI (SK-MEL-5 melanoma) was over 100 µM, the TGI (SK-OV-3 ovarian) was over 100 µM and the TGI (SN12C renal) was over 100 µM. For the same molecule, the TGI (SN12K1 renal) was over 100 µM, the TGI (SNB-19 CNS) was over 100 µM and the TGI (SNB-75 CNS) was over 100 µM. It also gave a TGI (SNB-78 CNS) of over 100 µM, a TGI (SW-620 colon) of over 100 µM and a TGI (U251 CNS) of over 100 µM. It also gave a TGI (UACC-257 melanoma) of over 100 µM, a TGI (UACC-62 melanoma) of over 100 µM and a TGI (UO-31 renal) of over 100 µM. The TGI (XF 498 CNS) was over 92.9 µM.
In the case of `COC1CC(O)C(OC(=O)c2ccccc2)C(C)O1` (stereo not drawn), the TGI (786-0 renal) is reported as over 100 µM, the TGI (A498 renal) is reported as over 100 µM and the TGI (A549 NSCLC) is reported as over 100 µM. It also gave a TGI (CAKI-1 renal) of over 100 µM, a TGI (CCRF-CEM leukemia) of over 100 µM and a TGI (COLO 205 colon) of over 100 µM. The TGI (DMS 273 small cell lung) was over 100 µM, the TGI (HCC-2998 colon) was over 100 µM and the TGI (HCT-116 colon) was over 100 µM. It also gave a TGI (HCT-15 colon) of over 100 µM, a TGI (HL-60(TB) leukemia) of over 100 µM and a TGI (HOP-18 NSCLC) of over 100 µM. The TGI (HOP-62 NSCLC) was over 100 µM, the TGI (HOP-92 NSCLC) was over 100 µM and the TGI (HT29 colon) was over 100 µM. It also gave a TGI (IGROV1 ovarian) of over 100 µM, a TGI (K-562 leukemia) of over 100 µM and a TGI (KM12 colon) of over 100 µM. It also gave a TGI (KM20L2 colon) of over 100 µM, a TGI (LOX IMVI melanoma) of over 100 µM and a TGI (M14 melanoma) of over 100 µM. For the same molecule, the TGI (M19-MEL melanoma) was over 100 µM, the TGI (MALME-3M melanoma) was over 100 µM and the TGI (MOLT-4 leukemia) was over 100 µM. For the same molecule, the TGI (NCI-H226 lung) was over 100 µM, the TGI (NCI-H23 lung) was over 100 µM and the TGI (NCI-H460 lung) was over 100 µM. The TGI (NCI-H522 lung) was over 100 µM, the TGI (OVCAR-3 ovarian) was over 100 µM and the TGI (OVCAR-4 ovarian) was over 100 µM. The TGI (OVCAR-5 ovarian) was over 100 µM, the TGI (OVCAR-8 ovarian) was over 100 µM and the TGI (RPMI-8226 leukemia) was over 100 µM. For the same molecule, the TGI (RXF-631 renal) was over 100 µM, the TGI (SF-268 CNS) was over 100 µM and the TGI (SF-295 CNS) was over 100 µM. The TGI (SF-539 CNS) was over 100 µM, the TGI (SK-MEL-28 melanoma) was over 100 µM and the TGI (SK-MEL-5 melanoma) was over 100 µM. The TGI (SN12C renal) was over 100 µM, the TGI (SNB-19 CNS) was over 100 µM and the TGI (SNB-78 CNS) was over 100 µM. The TGI (SR leukemia) was over 100 µM, the TGI (SW-620 colon) was over 100 µM and the TGI (TK-10 renal) was over 100 µM. For the same molecule, the TGI (U251 CNS) was over 100 µM, the TGI (UACC-62 melanoma) was over 100 µM and the TGI (XF 498 CNS) was over 100 µM.
